Some results are limits rather than exact numbers.

As a reminder, the inhibition is the drop in the measured response relative to a control, in per cent. The Ki is a dissociation constant, usually derived from enzyme kinetics or from competition with a known ligand.

T3 sequence (P28223 whole entry): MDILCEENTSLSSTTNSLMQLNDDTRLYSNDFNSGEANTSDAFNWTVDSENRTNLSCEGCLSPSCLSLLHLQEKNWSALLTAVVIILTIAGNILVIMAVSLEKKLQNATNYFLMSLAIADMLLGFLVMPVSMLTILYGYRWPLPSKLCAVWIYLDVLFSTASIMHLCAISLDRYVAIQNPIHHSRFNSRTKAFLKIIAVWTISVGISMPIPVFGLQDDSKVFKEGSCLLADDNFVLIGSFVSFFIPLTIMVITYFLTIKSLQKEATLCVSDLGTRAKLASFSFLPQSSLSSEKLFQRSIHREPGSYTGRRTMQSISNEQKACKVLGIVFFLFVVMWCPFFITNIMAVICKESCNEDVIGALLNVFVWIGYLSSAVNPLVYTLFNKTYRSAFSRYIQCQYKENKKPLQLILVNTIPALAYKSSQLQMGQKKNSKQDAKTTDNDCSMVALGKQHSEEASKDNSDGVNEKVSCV
5-hydroxytryptamine receptor 7 (Homo sapiens), sequence (P34969 whole entry): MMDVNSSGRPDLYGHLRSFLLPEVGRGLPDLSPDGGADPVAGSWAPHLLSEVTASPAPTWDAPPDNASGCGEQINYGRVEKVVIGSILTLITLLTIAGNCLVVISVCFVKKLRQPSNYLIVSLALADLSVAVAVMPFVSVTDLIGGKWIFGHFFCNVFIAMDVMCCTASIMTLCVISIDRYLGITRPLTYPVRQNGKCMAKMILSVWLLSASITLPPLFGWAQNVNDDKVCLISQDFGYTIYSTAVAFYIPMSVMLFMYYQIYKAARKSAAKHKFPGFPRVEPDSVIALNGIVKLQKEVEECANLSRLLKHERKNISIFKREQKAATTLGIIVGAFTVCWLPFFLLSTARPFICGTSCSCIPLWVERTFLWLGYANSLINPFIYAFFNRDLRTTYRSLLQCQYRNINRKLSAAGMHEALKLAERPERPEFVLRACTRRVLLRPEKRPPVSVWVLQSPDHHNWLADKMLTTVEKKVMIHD
5-hydroxytryptamine receptor 1E (Homo sapiens), sequence (P28566 whole entry): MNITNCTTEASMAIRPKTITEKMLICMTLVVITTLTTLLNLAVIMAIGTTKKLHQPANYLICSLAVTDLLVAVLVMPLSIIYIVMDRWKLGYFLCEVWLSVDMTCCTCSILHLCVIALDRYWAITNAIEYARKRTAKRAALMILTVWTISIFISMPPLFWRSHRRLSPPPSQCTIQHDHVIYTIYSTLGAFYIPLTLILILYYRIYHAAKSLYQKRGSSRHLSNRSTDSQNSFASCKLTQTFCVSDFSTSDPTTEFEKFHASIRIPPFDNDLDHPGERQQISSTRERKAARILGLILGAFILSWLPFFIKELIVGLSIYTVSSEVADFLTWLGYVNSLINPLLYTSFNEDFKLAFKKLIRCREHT
5-hydroxytryptamine receptor 4 (Homo sapiens), sequence (Q13639 whole entry): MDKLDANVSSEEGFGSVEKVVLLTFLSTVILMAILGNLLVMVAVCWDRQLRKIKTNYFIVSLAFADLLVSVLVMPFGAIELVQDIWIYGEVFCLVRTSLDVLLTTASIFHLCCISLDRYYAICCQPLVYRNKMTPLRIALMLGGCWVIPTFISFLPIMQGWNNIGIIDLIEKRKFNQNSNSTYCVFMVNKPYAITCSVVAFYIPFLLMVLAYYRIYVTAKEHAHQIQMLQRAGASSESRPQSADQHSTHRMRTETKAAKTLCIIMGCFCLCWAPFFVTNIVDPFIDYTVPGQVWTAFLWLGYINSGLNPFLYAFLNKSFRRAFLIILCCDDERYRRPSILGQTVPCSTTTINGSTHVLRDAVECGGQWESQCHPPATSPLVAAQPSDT
5-hydroxytryptamine receptor 1D (Homo sapiens), sequence (P28221 whole entry): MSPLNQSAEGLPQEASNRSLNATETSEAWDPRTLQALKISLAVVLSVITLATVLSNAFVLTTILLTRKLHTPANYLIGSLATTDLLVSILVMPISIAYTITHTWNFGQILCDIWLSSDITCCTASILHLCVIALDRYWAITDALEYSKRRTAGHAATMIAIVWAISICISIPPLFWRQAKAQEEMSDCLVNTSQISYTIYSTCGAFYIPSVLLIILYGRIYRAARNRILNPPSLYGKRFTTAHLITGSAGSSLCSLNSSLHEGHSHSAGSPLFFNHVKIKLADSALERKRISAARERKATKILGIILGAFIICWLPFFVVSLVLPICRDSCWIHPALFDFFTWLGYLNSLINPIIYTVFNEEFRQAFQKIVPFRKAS

The target of one assay is T1, 5-hydroxytryptamine receptor 1A (Homo sapiens) (UniProt P08908).
T1 sequence (whole entry): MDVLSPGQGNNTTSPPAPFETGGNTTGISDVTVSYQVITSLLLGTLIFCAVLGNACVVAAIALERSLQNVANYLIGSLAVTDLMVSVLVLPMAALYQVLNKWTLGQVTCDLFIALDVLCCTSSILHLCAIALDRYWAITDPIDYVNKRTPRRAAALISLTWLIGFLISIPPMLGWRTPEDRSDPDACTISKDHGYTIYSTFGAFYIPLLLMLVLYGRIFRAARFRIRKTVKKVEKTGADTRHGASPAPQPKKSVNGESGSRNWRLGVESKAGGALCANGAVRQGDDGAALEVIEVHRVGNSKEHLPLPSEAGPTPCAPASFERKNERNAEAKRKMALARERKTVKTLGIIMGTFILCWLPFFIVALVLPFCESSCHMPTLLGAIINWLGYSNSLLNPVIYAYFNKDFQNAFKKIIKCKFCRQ
The assay is described as follows: Displacement of [3H]WAY100635 from human 5-HT1AR expressed in CHO cell membranes at 10 uM incubated for 90 mins under dark condition by microbeta scintillation counting method relative to control.
Conditions: not given
(In a radioligand displacement assay an active substance lowers the binding of a labelled ligand.)
Regarding `CC(C)[C@@H](Nc1nc(Cl)nc2c1ncn2[C@H]1[C@H](O)[C@H](O)[C@]2(CO)C[C@H]12)C1CC1`, the inhibition is < 50%.

With `Nc1nc(Cl)nc2c1ncn2[C@@H]1O[C@H](CO)[C@@H](O)[C@H]1O`, the inhibition was < 50%.

The target of the next assay is 5-hydroxytryptamine receptor 1B (Homo sapiens) (UniProt P28222). Description: Displacement of [3H]5-CT from human 5-HT1BR expressed in HEK cell membranes at 10 uM incubated for 90 mins under dark condition by microbeta scintillation counting method relative to control. To be noted: HEK293.
5-hydroxytryptamine receptor 1B (Homo sapiens), sequence (P28222 whole entry): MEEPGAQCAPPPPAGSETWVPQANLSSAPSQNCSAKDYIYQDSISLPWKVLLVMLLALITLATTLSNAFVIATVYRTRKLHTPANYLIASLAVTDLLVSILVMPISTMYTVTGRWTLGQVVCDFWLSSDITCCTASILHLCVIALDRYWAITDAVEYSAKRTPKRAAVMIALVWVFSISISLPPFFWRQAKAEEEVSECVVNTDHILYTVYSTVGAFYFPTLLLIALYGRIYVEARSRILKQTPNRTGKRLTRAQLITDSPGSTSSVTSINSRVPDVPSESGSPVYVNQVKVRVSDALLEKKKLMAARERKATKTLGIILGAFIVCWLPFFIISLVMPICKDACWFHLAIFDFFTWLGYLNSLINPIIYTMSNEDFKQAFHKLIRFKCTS
Turning to `CC(C)[C@@H](Nc1nc(Cl)nc2c1ncn2[C@H]1[C@H](O)[C@H](O)[C@]2(CO)C[C@H]12)C1CC1`, the inhibition is < 50%.

As to `Nc1nc(Cl)nc2c1ncn2[C@@H]1O[C@H](CO)[C@@H](O)[C@H]1O`, the inhibition was < 50%.

Another assay concerns the target 5-hydroxytryptamine receptor 1D (Homo sapiens) (UniProt P28221). Description: Displacement of [3H]5-CT from human 5-HT1D receptor expressed in HEK-T cell membranes at 10 uM incubated for 90 mins under dark condition by microbeta scintillation counting method relative to control.
Conditions: not given
Consider `CC(C)[C@@H](Nc1nc(Cl)nc2c1ncn2[C@H]1[C@H](O)[C@H](O)[C@]2(CO)C[C@H]12)C1CC1`, for which the inhibition was < 50%.

With `Nc1nc(Cl)nc2c1ncn2[C@@H]1O[C@H](CO)[C@@H](O)[C@H]1O`, the inhibition is < 50%.

A further assay concerns the target 5-hydroxytryptamine receptor 1E (Homo sapiens) (UniProt P28566). Description: Displacement of [3H]5-HT from human 5-HT1E receptor expressed in HEK cell membranes at 10 uM incubated for 90 mins under dark condition by microbeta scintillation counting method relative to control. To be noted: HEK293.
Take `CC(C)[C@@H](Nc1nc(Cl)nc2c1ncn2[C@H]1[C@H](O)[C@H](O)[C@]2(CO)C[C@H]12)C1CC1`: the inhibition is < 50%.

Consider `Nc1nc(Cl)nc2c1ncn2[C@@H]1O[C@H](CO)[C@@H](O)[C@H]1O`, for which the inhibition was < 50%.

The next assay has as its target 5-hydroxytryptamine receptor 4 (Homo sapiens) (UniProt Q13639). The assay is described as follows: Displacement of [3H]GR113808 from human 5-HT4 receptor at 10 uM incubated for 90 mins under dark condition by microbeta scintillation counting method relative to control.
Conditions: not given
As for `CC(C)[C@@H](Nc1nc(Cl)nc2c1ncn2[C@H]1[C@H](O)[C@H](O)[C@]2(CO)C[C@H]12)C1CC1`, the inhibition is < 50%.

In the case of `Nc1nc(Cl)nc2c1ncn2[C@@H]1O[C@H](CO)[C@@H](O)[C@H]1O`, the inhibition was < 50%.

The target of a further assay is 5-hydroxytryptamine receptor 6 (Homo sapiens) (UniProt P50406). Description: Displacement of [3H]LSD from human 5-HT6 receptor expressed in HEK cell membranes at 10 uM incubated for 90 mins under dark condition by microbeta scintillation counting method relative to control. The settings on record: HEK293.
5-hydroxytryptamine receptor 6 (Homo sapiens), sequence (P50406 whole entry): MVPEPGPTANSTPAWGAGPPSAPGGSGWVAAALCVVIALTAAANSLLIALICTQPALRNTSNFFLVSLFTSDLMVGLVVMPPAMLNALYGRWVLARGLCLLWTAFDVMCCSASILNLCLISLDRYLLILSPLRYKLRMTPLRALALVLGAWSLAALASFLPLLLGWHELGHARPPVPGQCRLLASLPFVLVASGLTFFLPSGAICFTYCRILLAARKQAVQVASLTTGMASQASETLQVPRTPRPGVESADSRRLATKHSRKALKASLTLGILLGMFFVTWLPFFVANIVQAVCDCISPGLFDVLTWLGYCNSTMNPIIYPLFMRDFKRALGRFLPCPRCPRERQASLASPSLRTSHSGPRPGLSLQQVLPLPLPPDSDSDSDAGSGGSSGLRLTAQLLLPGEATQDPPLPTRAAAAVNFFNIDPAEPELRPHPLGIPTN
On to `CC(C)[C@@H](Nc1nc(Cl)nc2c1ncn2[C@H]1[C@H](O)[C@H](O)[C@]2(CO)C[C@H]12)C1CC1`, for which the inhibition was < 50%.

For `Nc1nc(Cl)nc2c1ncn2[C@@H]1O[C@H](CO)[C@@H](O)[C@H]1O`, the inhibition is < 50%.

A further assay concerns the target 5-hydroxytryptamine receptor 7 (Homo sapiens) (UniProt P34969). The assay is described as follows: Displacement of [3H]LSD from human 5-HT7A receptor expressed in HEK cell membranes at 10 uM incubated for 90 mins under dark condition by microbeta scintillation counting method relative to control. To be noted: HEK293.
On to `CC(C)[C@@H](Nc1nc(Cl)nc2c1ncn2[C@H]1[C@H](O)[C@H](O)[C@]2(CO)C[C@H]12)C1CC1`, for which the inhibition was < 50%.

For `Nc1nc(Cl)nc2c1ncn2[C@@H]1O[C@H](CO)[C@@H](O)[C@H]1O`, the inhibition was < 50%.

A further assay concerns the target T2, 5-hydroxytryptamine receptor 3A (Homo sapiens) (UniProt P46098).
T2 sequence (whole entry): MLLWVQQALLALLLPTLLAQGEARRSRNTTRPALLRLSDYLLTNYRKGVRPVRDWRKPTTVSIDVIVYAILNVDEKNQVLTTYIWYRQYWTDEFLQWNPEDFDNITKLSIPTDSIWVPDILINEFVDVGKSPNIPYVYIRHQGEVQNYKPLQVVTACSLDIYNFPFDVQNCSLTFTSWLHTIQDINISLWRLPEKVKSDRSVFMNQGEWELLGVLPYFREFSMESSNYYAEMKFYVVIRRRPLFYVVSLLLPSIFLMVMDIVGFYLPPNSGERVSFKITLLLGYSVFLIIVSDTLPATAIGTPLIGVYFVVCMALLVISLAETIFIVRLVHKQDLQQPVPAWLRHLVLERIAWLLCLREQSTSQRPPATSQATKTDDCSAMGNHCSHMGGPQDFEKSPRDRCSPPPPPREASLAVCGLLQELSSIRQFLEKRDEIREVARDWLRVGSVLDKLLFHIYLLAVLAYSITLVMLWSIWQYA
Description: Displacement of [3H]GR65630 from human 5-HT3 receptor expressed in HEK-T cell membranes at 10 uM incubated for 90 mins under dark condition by microbeta scintillation counting method relative to control.
Conditions: not given
Turning to `CC(C)[C@@H](Nc1nc(Cl)nc2c1ncn2[C@H]1[C@H](O)[C@H](O)[C@]2(CO)C[C@H]12)C1CC1`, the inhibition is < 50%.

On to `Nc1nc(Cl)nc2c1ncn2[C@@H]1O[C@H](CO)[C@@H](O)[C@H]1O`, for which the inhibition was < 50%.

A further assay deals with 5-hydroxytryptamine receptor 5A (Homo sapiens) (UniProt P47898). The assay is described as follows: Displacement of [3H]LSD from human 5-HT5A receptor expressed in Flp-In-CHO cell membranes incubated for 90 mins under dark condition by microbeta scintillation counting method relative to control. The arrangement: concentration or dose not given beside the values.
5-hydroxytryptamine receptor 5A (Homo sapiens), sequence (P47898 whole entry): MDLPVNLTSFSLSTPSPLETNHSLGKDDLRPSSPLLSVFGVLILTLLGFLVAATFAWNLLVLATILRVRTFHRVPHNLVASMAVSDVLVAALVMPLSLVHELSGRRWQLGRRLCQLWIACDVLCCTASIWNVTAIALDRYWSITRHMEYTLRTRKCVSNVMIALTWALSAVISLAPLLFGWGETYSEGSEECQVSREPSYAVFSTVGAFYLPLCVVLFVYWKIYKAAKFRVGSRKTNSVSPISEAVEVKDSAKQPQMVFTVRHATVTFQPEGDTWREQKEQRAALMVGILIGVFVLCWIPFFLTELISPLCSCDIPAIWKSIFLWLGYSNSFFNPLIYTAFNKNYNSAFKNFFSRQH
Conditions: not given
Take `CC(C)[C@@H](Nc1nc(Cl)nc2c1ncn2[C@H]1[C@H](O)[C@H](O)[C@]2(CO)C[C@H]12)C1CC1`: the inhibition is < 50%.

As to `Nc1nc(Cl)nc2c1ncn2[C@@H]1O[C@H](CO)[C@@H](O)[C@H]1O`, the inhibition is < 50%.

Another assay addresses T3, 5-hydroxytryptamine receptor 2A (Homo sapiens, UniProt P28223). The assay is described as follows: Displacement of [3H]ketanserin from human 5-HT2A receptor expressed in HEK-T cell membranes at 10 uM incubated for 90 mins under dark condition by microbeta scintillation counting method relative to control.
Conditions: not given
For `CC(C)[C@@H](Nc1nc(Cl)nc2c1ncn2[C@H]1[C@H](O)[C@H](O)[C@]2(CO)C[C@H]12)C1CC1`, the inhibition was < 10%.

`Nc1nc(Cl)nc2c1ncn2[C@@H]1O[C@H](CO)[C@@H](O)[C@H]1O` registered an inhibition of 46%.

The next assay deals with T4, 5-hydroxytryptamine receptor 2C (Homo sapiens, UniProt P28335).
T4 sequence (P28335 whole entry): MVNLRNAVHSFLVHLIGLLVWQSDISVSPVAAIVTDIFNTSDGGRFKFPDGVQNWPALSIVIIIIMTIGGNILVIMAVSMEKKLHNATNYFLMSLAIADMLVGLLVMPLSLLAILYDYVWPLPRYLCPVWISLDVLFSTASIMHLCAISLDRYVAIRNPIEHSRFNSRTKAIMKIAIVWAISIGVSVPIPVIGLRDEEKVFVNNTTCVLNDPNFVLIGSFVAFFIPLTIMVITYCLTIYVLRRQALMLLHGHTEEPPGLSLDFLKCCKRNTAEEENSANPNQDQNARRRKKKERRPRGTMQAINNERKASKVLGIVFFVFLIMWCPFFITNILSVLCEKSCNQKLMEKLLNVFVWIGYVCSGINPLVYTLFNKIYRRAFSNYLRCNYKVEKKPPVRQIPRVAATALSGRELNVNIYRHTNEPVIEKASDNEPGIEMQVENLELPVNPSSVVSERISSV
The assay is described as follows: Displacement of [3H]mesulergine from human 5-HT2CR expressed in Flp-In HEK cell membranes incubated for 90 mins under dark condition by microbeta scintillation counting method. Details: species or system HEK293.
Conditions: not given
In turn, `CC(C)[C@@H](Nc1nc(Cl)nc2c1ncn2[C@H]1[C@H](O)[C@H](O)[C@]2(CO)C[C@H]12)C1CC1` came in with an inhibition constant (Ki) of 0.19 µM.

Another assay has as its target T5, 5-hydroxytryptamine receptor 2C (Homo sapiens) (UniProt P28335).
T5 sequence (whole entry): T4 sequence (P28335 whole entry)
Description: Displacement of [3H]mesulergine from human 5-HT2CR expressed in Flp-In HEK cell membranes at 10 uM incubated for 90 mins under dark condition by microbeta scintillation counting method relative to control. The settings on record: HEK293.
For `CC(C)[C@@H](Nc1nc(Cl)nc2c1ncn2[C@H]1[C@H](O)[C@H](O)[C@]2(CO)C[C@H]12)C1CC1`, the inhibition is > 50%.

As to `Nc1nc(Cl)nc2c1ncn2[C@@H]1O[C@H](CO)[C@@H](O)[C@H]1O`, the inhibition was < 10%.

Another assay addresses T6, Adenosine receptor A1 (Homo sapiens, UniProt P30542).
T6 sequence (P30542 whole entry): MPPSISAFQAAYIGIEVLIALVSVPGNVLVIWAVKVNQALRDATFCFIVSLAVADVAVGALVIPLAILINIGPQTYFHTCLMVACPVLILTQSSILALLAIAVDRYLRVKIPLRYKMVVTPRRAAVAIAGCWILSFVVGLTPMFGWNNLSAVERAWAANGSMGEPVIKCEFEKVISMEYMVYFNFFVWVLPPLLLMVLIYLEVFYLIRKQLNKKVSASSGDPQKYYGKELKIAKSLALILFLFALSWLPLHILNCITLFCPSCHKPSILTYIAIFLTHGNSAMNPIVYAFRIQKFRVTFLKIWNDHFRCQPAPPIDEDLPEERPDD
Description: Displacement of [3H]N6-phenylisopropyladenosine from recombinant human A1AR expressed in CHO cell membranes after 60 mins by liquid scintillation counting method.
Conditions: not given
With `CC(C)[C@@H](Nc1nc(Cl)nc2c1ncn2[C@H]1[C@H](O)[C@H](O)[C@]2(CO)C[C@H]12)C1CC1`, the Ki was determined as 0.103 µM.

Take `Nc1nc(Cl)nc2c1ncn2[C@@H]1O[C@H](CO)[C@@H](O)[C@H]1O`: the Ki turned out to be 0.0028 µM.

The next assay addresses T7, Adenosine receptor A3 (Homo sapiens, UniProt P0DMS8).
T7 sequence (P0DMS8 whole entry): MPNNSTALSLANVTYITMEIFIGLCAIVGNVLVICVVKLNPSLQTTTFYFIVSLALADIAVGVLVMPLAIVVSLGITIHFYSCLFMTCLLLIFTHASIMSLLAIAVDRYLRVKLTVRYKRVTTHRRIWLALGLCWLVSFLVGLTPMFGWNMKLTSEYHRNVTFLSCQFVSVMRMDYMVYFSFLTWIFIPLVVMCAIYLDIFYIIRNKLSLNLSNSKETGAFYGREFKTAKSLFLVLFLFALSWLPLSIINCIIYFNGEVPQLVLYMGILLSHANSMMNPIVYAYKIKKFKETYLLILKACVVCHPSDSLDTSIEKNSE
The assay is described as follows: Displacement of [125l]N 6-(4-amino-3-iodobenzyl)adenosine-5'-N-methyluronamide from recombinant human A3AR expressed in CHO cell membranes after 60 mins by gamma counting method.
Conditions: not given
As for `CC(C)[C@@H](Nc1nc(Cl)nc2c1ncn2[C@H]1[C@H](O)[C@H](O)[C@]2(CO)C[C@H]12)C1CC1`, the Ki turned out to be 1.24 µM.

Another assay has as its target T3, 5-hydroxytryptamine receptor 2A. Description: Displacement of [3H]ketanserin from human 5-HT2A receptor expressed in HEK-T cell membranes incubated for 90 mins under dark condition by microbeta scintillation counting method.
Conditions: not given
Turning to `CC(C)[C@@H](Nc1nc(Cl)nc2c1ncn2[C@H]1[C@H](O)[C@H](O)[C@]2(CO)C[C@H]12)C1CC1`, the Ki was > 10 µM.

As for `Nc1nc(Cl)nc2c1ncn2[C@@H]1O[C@H](CO)[C@@H](O)[C@H]1O`, the Ki is > 10 µM.

Another assay deals with 5-hydroxytryptamine receptor 2B (Homo sapiens, UniProt P41595). To be noted: HEK293, at 10 µM.
5-hydroxytryptamine receptor 2B, sequence (P41595 whole entry): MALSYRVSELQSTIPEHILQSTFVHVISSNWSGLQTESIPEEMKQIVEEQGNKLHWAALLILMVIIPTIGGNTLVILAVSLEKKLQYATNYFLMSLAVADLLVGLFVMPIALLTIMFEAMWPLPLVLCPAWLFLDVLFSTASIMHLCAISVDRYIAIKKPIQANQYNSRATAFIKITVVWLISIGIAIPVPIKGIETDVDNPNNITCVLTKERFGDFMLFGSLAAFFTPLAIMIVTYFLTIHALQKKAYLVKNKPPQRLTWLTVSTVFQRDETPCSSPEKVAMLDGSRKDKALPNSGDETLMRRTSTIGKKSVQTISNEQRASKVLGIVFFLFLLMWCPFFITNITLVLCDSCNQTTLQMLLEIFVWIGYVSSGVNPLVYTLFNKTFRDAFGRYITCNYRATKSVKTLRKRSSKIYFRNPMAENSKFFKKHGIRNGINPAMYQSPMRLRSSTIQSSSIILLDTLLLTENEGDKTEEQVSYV
Take `Nc1nc(Cl)nc2c1ncn2[C@@H]1O[C@H](CO)[C@@H](O)[C@H]1O`: the inhibition is < 10%.

The values above are taken from ChEMBL document CHEMBL3862033 (J Med Chem, 2016).
